Literature values in patent US12612577B2, “Perfumed compositions, process of preparing thereof and uses” (MINASOLVE SAS, priority 2019, dated 2026).

System: bacteria and fungi
Conditions: against bacteria and fungi

In the case of `CCCC(O)CO` (stereo not shown) [1,2-pentanediol], the “minimum inhibitory concentration (MIC)” value is listed as 5%.
